Assay results from publication PMC8500837, “The tertiary structure of the human Xkr8–Basigin complex that scrambles phospholipids at plasma membranes” (Nature Structural & Molecular Biology, 2021).
Substitutions are numbered along the chain they refer to. Structures can show the parent of a compound that is named as a salt.

Assays:
[1] = target: T1, mXkr8 (mXkr8-GFP; mXkr8–BSG complex) (Mus musculus, UniProt Q8C0T0, W45A); experiment: flow cytometry of NBD-SM internalization (BSA back-extraction) in Ba/F3 transformants; type: cell-based; settings: 0.5 µM NBD-SM, 20 °C, labelled compound; constitutively active mutant
T1 construct: gene Xkr8; full length, C-terminal GFP tag, stably expressed in TMEM16F-/- Xkr8-/- mouse Ba/F3 cells; endogenous Basigin (or Neuroplastin) as partner; with Basigin
T1 sequence (Q8C0T0 1-401 W45A): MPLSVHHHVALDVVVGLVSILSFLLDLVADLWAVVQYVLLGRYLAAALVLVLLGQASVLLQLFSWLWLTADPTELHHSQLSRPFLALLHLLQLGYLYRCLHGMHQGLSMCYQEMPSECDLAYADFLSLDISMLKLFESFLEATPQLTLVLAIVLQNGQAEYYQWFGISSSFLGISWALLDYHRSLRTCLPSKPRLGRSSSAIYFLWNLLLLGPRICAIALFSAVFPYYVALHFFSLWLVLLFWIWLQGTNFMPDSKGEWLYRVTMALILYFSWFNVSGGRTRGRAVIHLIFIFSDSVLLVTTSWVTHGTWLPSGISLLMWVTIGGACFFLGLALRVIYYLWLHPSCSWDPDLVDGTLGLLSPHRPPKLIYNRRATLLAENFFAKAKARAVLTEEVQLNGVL
T1 sequence (P18572 22-389 partner): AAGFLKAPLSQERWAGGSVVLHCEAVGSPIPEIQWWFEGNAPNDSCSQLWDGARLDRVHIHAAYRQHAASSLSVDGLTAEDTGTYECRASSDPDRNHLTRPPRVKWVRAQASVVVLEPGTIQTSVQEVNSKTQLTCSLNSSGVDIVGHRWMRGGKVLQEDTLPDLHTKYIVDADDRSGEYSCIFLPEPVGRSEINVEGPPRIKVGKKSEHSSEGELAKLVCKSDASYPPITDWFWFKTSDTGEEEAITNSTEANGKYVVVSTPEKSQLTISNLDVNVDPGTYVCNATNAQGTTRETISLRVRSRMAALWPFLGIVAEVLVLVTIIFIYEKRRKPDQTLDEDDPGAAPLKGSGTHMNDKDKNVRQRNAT

[2] = target: T2, mXkr8 (mXkr8-GFP; mXkr8–BSG complex) (Mus musculus, UniProt Q8C0T0); experiment: as above; type: cell-based; settings: 0.5 µM NBD-SM, 4 °C or 20 °C, labelled compound; lipid scrambling outer to inner leaflet
T2 construct: gene Xkr8; full length, C-terminal GFP tag, stably expressed in TMEM16F-/- Xkr8-/- mouse Ba/F3 cells; endogenous Basigin (or Neuroplastin) as partner; with Basigin
T2 sequence (Q8C0T0 1-401): T1 sequence (Q8C0T0 1-401 W45A) with A45W
T2 sequence (P18572 22-389 partner): T1 sequence (P18572 22-389 partner)

fold internalization vs wild type [1]: ~ 3 fold
SMILES: CCCCCCCCCCCCC/C=C/[C@@H](O)[C@H](COP(=O)([O-])OCC[N+](C)(C)C)NC(=O)CCCCCNc1ccc([N+](=O)[O-])c2nonc12 [NBD-SM, (7S)-4-hydroxy-7-[(1R,2E)-1-hydroxy-2-hexadecen-1-yl]-N,N,N-trimethyl-14-[(7-nitro-2,1,3-benzoxadiazol-4-yl)amino]-9-oxo-3,5-dioxa-8-aza-4-phosphatetradecan-1-aminium, 4-oxide inner salt]
flow cytometry of NBD-SM internalization (BSA back-extraction) in Ba/F3 transfor [2]: Ba/F3 cell transformants expressing wild-type Xkr8 efficiently incorporated NBD-SM
